According to patent publication US11530206B2, “Phenylaminopyrimidine amide autophagy inhibitors and methods of use thereof” (Deciphera Pharmaceuticals, LLC, priority 2019, dated 2022):

Assays:
ULK kinase [1] = assay: pATG13 levels of mutant KRas MiaPaCa-2 cells after treatment with ULK inhibitors in combination with trametinib (ELISA); format: cell-based, human; conditions: MiaPaCa-2 pancreatic cancer cells, 250 nM trametinib, overnight, pS318-ATG13
How it was run: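 MiaPaCa-2 cells in DMEM with 10% FBS and 2.5% horse serum were pretreated with trametinib or DMSO, then given a test-compound dose response overnight at 37° C. Lysates were assayed for phospho-ATG13 by ELISA (A450 minus A540 background, blank-corrected). % phosphorylation was calculated relative to controls and fitted to IC50.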

ULK kinase [2] = assay: pATG13 levels of mutant KRas HCT-116 cells after treatment with ULK inhibitors in combination with trametinib (ELISA); format: cell-based, human; conditions: HCT-116 colon cancer cells, 250 nM trametinib, overnight, pS318-ATG13
Procedure: The following day, 10 μL of media containing trametinib or DMSO as a control was added to wells. […] A dose response of a test compound (0.6 μL per well) was added. DMSO (0.6 μL) was added to control wells. The plate was briefly shaken to mix wells and then incubated at 37° C. overnight. The next day, the media was aspirated and cells were washed with Dulbecco's Phosphate Buffered Saline (Gibco). Cells were lysed using MPER lysis buffer (Pierce, Rockford, Ill.) containing Halt Phosphatase and Protease Inhibitors (Pierce, Rockford, Ill.) and Phosphatase inhibitor cocktail 2 (Sigma, St. Louis, Mo.) at 4° C. for 10 minutes with shaking.
(§1) Plate wells were washed with ELISA wash buffer. Cell lysate was added to wells and incubated at room temperature for 2 hours. Plate wells were washed with ELISA wash buffer. […] Plate wells were washed with ELISA wash buffer. […] Plate wells were washed with ELISA wash buffer. […] The reaction was stopped with 2N Sulfuric Acid. The plate was analyzed at on a plate reader measuring absorbance at 450 nm and 540 nm (background). Signal was calculated by first subtracting the background absorbance at 540 nm from the absorbance at 450 nm for each well. Next, the background corrected absorbance at 450 nm from blank wells was subtracted from test wells. Data was compared to control wells to determine % ATG13 phosphorylation. GraphPad Prism was used to calculate IC50 values.

ULK kinase [3] = assay: pATG13 levels of mutant KRas A549 cells after treatment with ULK inhibitors in combination with trametinib (ELISA); format: cell-based, human; conditions: A549 (KRAS mutant) lung cancer cells, 250 nM trametinib, overnight, pS318-ATG13
How it was run: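 Lysates with phosphatase/protease inhibitors assayed by pATG13 ELISA, A450 minus A540 background and blank-corrected. % ATG13 phosphorylation versus DMSO controls fitted to IC50.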

ULK kinase [4] = assay: pATG13 levels of mutant HRas T24 cells after treatment with ULK inhibitors in combination with trametinib (ELISA); format: cell-based, human; conditions: T24 urinary bladder cancer cells (mutant HRas), 250 nM trametinib, overnight, pS318-ATG13
Procedure: T24 human urinary bladder cancer cells (25000 cells/well) were added to a 96-well tissue-culture treated plate in 100 μL of pre-warmed DMEM medium supplemented with 10% characterized fetal bovine serum (Invitrogen, Carlsbad, Calif.), 100 units/mL penicillin G, and 100 μg/mL streptomycin and allowed to grow overnight at 37° C., 5% CO2, and 95% humidity. The following day, 100 μL of media containing trametinib or DMSO as a control was added to wells. […] A dose response of a test compound (0.5 μL per well) was added. DMSO (0.5 μL) was added to control wells. The plate was briefly shaken to mix wells and then incubated at 37° C. overnight. The next day, the media was aspirated and cells were washed with Dulbecco's Phosphate Buffered Saline (Gibco). Cells were lysed using MPER lysis buffer (Pierce, Rockford, Ill.) containing Halt Phosphatase and Protease Inhibitors (Pierce, Rockford, Ill.) and Phosphatase inhibitor cocktail 2 (Sigma, St. Louis, Mo.) at 4° C. for 10 minutes with shaking.
as §1

ULK1 kinase = molecular target: T1, ULK1 kinase (Homo sapiens, UniProt O75385, E37A/K38A); assay: Biochemical assay for ULK1.3 (coupled pyruvate kinase/lactate dehydrogenase assay, peptide substrate); conditions: 0.1 nM ULK1 (residues 1-283), 1 mM ATP
T1 construct: purchased Beryllium
T1 sequence (O75385 1-283 E37A/K38A): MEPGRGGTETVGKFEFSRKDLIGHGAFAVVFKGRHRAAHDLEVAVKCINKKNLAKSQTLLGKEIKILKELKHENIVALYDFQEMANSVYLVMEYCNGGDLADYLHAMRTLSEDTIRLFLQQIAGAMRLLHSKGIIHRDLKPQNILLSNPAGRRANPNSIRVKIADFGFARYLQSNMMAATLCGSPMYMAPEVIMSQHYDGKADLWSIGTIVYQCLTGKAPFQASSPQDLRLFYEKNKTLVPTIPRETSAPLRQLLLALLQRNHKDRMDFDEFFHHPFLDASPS
How it was run: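 ULK1.3 activity was followed by continuous decrease in 340 nm absorbance over 6 h at 30 °C with 1% DMSO final. Rates were taken from the 2–3 h window and converted to percent inhibition against no-compound and known-inhibitor controls. IC50 values came from curve fitting.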

O=C1CCCCN1CCCNc1nc(Nc2ccc(N3CCNCC3)cc2C2CC2)ncc1C(F)(F)F [Example 34, 1-(3-((2-((2-cyclopropyl-4-(piperazin-1-yl)phenyl)amino)-5-(trifluoromethyl)pyrimidin-4-yl)amino)propyl)piperidin-2-one] showed an IC50 (ULK kinase [1]) of 10 to 100 nM, an IC50 (ULK kinase [2]) of 10 to 100 nM and an IC50 (ULK kinase [3]) of 10 to 100 nM. The IC50 (ULK kinase [4]) was 100 to 300 nM and the IC50 (ULK1 kinase) was 1 to 25 nM.
